Measured values from ChEMBL document CHEMBL5236600, “Identification of a Novel Potent CYP4Z1 Inhibitor Attenuating the Stemness of Breast Cancer Cells through Lead Optimization” (J Med Chem, 2022).
Active and inactive are the calls of the source. The rule behind the calls is not given here.

Key:
MCF7 [1] = test: Antiproliferative activity against human MCF7 cells assessed as decrease in spheroid size at 3.2 to 51.2 uM incubated for 10 days; assay type: functional, cell-based; details: dose 3.2-51.2 µM, time 10.0 day
MCF7 [2] = test: Antitumor activity against human MCF7 cells implanted in BALB/c mouse assessed as decrease in OCT4 expression administered drug pretreated cells subcutaneously and observed after 2 weeks by immunohistochemistry; assay type: functional, cell-based; details: route sc
MDA-MB-231 [3] = test: Inhibition of cell stemness in human MDA-MB-231 cells assessed as reduction in OCT3 expression at 0.8 to 51.2 uM by western blot analysis; assay type: functional, cell-based; details: dose 0.8-51.2 µM
[4] = Toxicity in mouse assessed as body weight loss at 2000 mg/kg,po administered for 7 days; assay type: organism-based; details: in vivo, 168 h, time 7 day
MDA-MB-231 [5] = test: Antiproliferative activity against human MDA-MB-231 cells assessed as cell growth inhibition incubated for 72 hrs by MTT assay; assay type: functional, cell-based; details: MDA-MB-231, 72 h
MDA-MB-231 [6] = test: Inhibition of cell stemness in human MDA-MB-231 cells assessed as reduction in OCT4 expression at 0.8 to 51.2 uM by western blot analysis; assay type: functional, cell-based; details: dose 0.8-51.2 µM
Cytochrome P450 2C9 = Cytochrome P450 2C9 (Homo sapiens, UniProt P11712); test: Inhibition of human recombinant CYP2C9 using Luciferin CEE as substrate incubated for 30 mins in presence of NADPH by luminescence based assay; assay type: ADME
Cytochrome P450 2C9, sequence (P11712 whole entry): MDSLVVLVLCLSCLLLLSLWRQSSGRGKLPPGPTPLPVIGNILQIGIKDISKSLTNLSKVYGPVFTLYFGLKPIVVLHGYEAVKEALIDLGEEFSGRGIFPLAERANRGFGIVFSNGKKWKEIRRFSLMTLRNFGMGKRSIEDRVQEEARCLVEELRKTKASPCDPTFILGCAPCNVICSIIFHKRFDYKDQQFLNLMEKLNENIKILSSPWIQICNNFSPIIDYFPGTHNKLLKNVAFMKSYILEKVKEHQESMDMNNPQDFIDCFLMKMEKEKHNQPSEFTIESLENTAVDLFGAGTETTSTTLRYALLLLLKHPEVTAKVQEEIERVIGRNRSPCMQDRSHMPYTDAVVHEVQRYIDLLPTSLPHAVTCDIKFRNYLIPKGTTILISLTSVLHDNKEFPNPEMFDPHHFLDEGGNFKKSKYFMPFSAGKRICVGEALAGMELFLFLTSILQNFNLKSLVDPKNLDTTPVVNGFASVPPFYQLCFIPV

MCF7 [7] = test: Antiproliferative activity against human MCF7 cells assessed as decrease in spheroid number at 3.2 to 51.2 uM incubated for 10 days; assay type: functional, cell-based; details: dose 3.2-51.2 µM, time 10.0 day
MDA-MB-231 [8] = test: Antitumor activity against human MDA-MB-231 cells implanted in BALB/c mouse assessed as decrease in Ki67 expression administered drug pretreated cells subcutaneously and observed after 2 weeks by immunohistochemistry; assay type: functional, cell-based; details: route sc
MCF7 [9] = test: Inhibition of cell stemness in human MCF7 cells assessed as reduction in OCT4 expression at 0.8 to 51.2 uM by western blot analysis; assay type: functional, cell-based; details: dose 0.8-51.2 µM
MDA-MB-231 [10] = test: Antitumor activity against human MDA-MB-231 cells implanted in BALB/c mouse assessed as change in stem cell frequency administered drug pretreated cells subcutaneously and observed after 2 weeks by colligation test; assay type: functional, cell-based; details: route sc
MDA-MB-231 [11] = test: Inhibition of cell migration of human MDA-MB-231 cells at 0.8 to 51.2 uM incubated for 24 hrs by wound healing assay; assay type: functional, cell-based; details: dose 0.8-51.2 µM
MDA-MB-231 [12] = test: Antitumor activity against human MDA-MB-231 cells implanted in BALB/c mouse assessed as decrease in ALDH1A1 expression administered drug pretreated cells subcutaneously and observed after 2 weeks by immunohistochemistry; assay type: functional, cell-based; details: route sc
MDA-MB-231 [13] = test: Antiproliferative activity against human MDA-MB-231 cells assessed as decrease in CD44+/CD24- cell population at 0.8 to 51.2 uM incubated for 30 mins by flow cytometry analysis; assay type: functional, cell-based; details: dose 0.8-51.2 µM
MCF7 [14] = test: Inhibition of cell invasion of human MCF7 cells at 0.8 to 51.2 uM incubated for 48 hrs by transwell invasion assay; assay type: functional, cell-based; details: dose 0.8-51.2 µM
Cytochrome P450 3A4 = Cytochrome P450 3A4 (Homo sapiens, UniProt P08684); test: Inhibition of human recombinant CYP3A4 using Luciferin-IPA as substrate incubated for 30 mins in presence of NADPH by luminescence based assay; assay type: ADME
Cytochrome P450 3A4, sequence (P08684 whole entry): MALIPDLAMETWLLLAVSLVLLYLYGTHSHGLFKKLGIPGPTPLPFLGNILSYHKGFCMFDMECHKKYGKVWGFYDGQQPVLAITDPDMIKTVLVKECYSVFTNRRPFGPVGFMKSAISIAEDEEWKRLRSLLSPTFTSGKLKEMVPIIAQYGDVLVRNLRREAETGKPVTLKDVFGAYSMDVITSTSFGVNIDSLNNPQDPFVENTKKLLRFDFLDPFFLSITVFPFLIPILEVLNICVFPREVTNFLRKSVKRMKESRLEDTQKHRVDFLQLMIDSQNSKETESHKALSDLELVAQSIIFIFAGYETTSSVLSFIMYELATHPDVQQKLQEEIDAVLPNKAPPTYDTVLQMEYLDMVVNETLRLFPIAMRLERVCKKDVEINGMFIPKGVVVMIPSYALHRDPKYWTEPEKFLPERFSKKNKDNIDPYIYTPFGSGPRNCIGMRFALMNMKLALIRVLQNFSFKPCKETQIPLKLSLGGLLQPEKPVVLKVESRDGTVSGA

[15] = Stability in mouse plasma assessed as half life at 40 uM incubated upto 5 hrs by LC-MS/MS analysis; assay type: ADME, cell-free
MDA-MB-231 [16] = test: Inhibition of cell stemness in human MDA-MB-231 cells assessed as reduction in SOX2 expression at 0.8 to 51.2 uM by western blot analysis; assay type: functional, cell-based; details: dose 0.8-51.2 µM
MDA-MB-231 [17] = test: Antiproliferative activity against human MDA-MB-231 cells assessed as decrease in spheroid number at 3.2 to 51.2 uM incubated for 10 days; assay type: functional, cell-based; details: dose 3.2-51.2 µM, time 10.0 day
MCF7 [18] = test: Antitumor activity against human MCF7 cells implanted in BALB/c mouse assessed as reduction in stem cell frequency administered drug pretreated cells subcutaneously and observed after 2 weeks; assay type: functional, cell-based; details: route sc
MDA-MB-231 [19] = test: Antitumor activity against human MDA-MB-231 cells implanted in BALB/c mouse assessed as reduction in stem cell frequency administered drug pretreated cells subcutaneously and observed after 2 weeks; assay type: functional, cell-based; details: route sc
MCF7 [20] = test: Inhibition of cell stemness in human MCF7 cells assessed as reduction in ALDH1A1 expression at 0.8 to 51.2 uM by western blot analysis; assay type: functional, cell-based; details: dose 0.8-51.2 µM
Cytochrome P450 2D6 = Cytochrome P450 2D6 (Homo sapiens, UniProt P10635); test: Inhibition of human recombinant CYP2D6 using Luciferin-ME EGE as substrate incubated for 30 mins in presence of NADPH by luminescence based assay; assay type: ADME
Cytochrome P450 2D6, sequence (P10635 whole entry): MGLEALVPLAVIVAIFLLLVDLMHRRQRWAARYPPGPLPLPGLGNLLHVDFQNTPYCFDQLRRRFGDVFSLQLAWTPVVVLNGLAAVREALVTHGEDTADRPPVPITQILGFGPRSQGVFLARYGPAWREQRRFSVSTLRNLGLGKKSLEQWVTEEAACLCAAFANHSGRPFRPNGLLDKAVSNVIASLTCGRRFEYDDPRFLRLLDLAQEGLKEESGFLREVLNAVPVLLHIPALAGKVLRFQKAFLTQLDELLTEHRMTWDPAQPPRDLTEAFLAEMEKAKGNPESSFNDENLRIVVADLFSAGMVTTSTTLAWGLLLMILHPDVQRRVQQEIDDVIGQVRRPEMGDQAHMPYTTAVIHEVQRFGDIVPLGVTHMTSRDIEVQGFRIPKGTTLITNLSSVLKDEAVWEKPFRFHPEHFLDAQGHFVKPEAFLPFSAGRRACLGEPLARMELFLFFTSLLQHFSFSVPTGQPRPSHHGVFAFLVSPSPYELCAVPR

MCF7 [21] = test: Antitumor activity against human MCF7 cells implanted in BALB/c mouse assessed as decrease in Ki67 expression administered drug pretreated cells subcutaneously and observed after 2 weeks by immunohistochemistry; assay type: functional, cell-based; details: route sc
MCF7 [22] = test: Inhibition of cell stemness in human MCF7 cells assessed as reduction in SOX2 expression at 0.8 to 51.2 uM by western blot analysis; assay type: functional, cell-based; details: dose 0.8-51.2 µM
MCF7 [23] = test: Inhibition of cell stemness in human MCF7 cells assessed as reduction in P-gP expression at 0.8 to 51.2 uM by western blot analysis; assay type: functional, cell-based; details: dose 0.8-51.2 µM
MDA-MB-231 [24] = test: Antiproliferative activity against human MDA-MB-231 cells assessed as decrease in spheroid size at 3.2 to 51.2 uM incubated for 10 days; assay type: functional, cell-based; details: dose 3.2-51.2 µM, time 10.0 day
MCF7 [25] = test: Antitumor activity against human MCF7 cells implanted in BALB/c mouse assessed as decrease in ALDH1A1 expression administered drug pretreated cells subcutaneously and observed after 2 weeks by immunohistochemistry; assay type: functional, cell-based; details: route sc
MCF7 [26] = test: Inhibition of cell stemness in human MCF7 cells assessed as reduction in Nanog expression at 0.8 to 51.2 uM by western blot analysis; assay type: functional, cell-based; details: dose 0.8-51.2 µM
MCF7 [27] = test: Antiproliferative activity against human MCF7 cells assessed as cell growth inhibition incubated for 72 hrs by MTT assay; assay type: functional, cell-based; details: MCF7, 72 h
MDA-MB-231 [28] = test: Antitumor activity against human MDA-MB-231 cells implanted in BALB/c mouse assessed as reduction in tumor formation ratio administered drug pretreated cells subcutaneously and observed after 2 weeks; assay type: functional, cell-based; details: route sc
MCF7 [29] = test: Antitumor activity against human MCF7 cells implanted in BALB/c mouse assessed as reduction in tumor formation ratio administered drug pretreated cells subcutaneously and observed after 2 weeks; assay type: functional, cell-based; details: route sc
MCF7 [30] = test: Antitumor activity against human MCF7 cells implanted in BALB/c mouse assessed as change in stem cell frequency administered drug pretreated cells subcutaneously and observed after 2 weeks by colligation test; assay type: functional, cell-based; details: route sc
MDA-MB-231 [31] = test: Inhibition of cell stemness in human MDA-MB-231 cells assessed as reduction in P-gP expression at 0.8 to 51.2 uM by western blot analysis; assay type: functional, cell-based; details: dose 0.8-51.2 µM
MDA-MB-231 [32] = test: Antitumor activity against human MDA-MB-231 cells implanted in BALB/c mouse assessed as change in tumor weight administered drug pretreated cells subcutaneously and observed after 2 weeks; assay type: functional, cell-based; details: route sc
MDA-MB-231 [33] = test: Inhibition of cell stemness in human MDA-MB-231 cells assessed as reduction in Nanog expression at 0.8 to 51.2 uM by western blot analysis; assay type: functional, cell-based; details: dose 0.8-51.2 µM
MCF7 [34] = test: Antitumor activity against human MCF7 cells implanted in BALB/c mouse assessed as change in tumor weight administered drug pretreated cells subcutaneously and observed after 2 weeks; assay type: functional, cell-based; details: route sc
MCF7 [35] = test: Inhibition of cell migration of human MCF7 cells at 0.8 to 51.2 uM incubated for 48 hrs by wound healing assay; assay type: functional, cell-based; details: dose 0.8-51.2 µM
MDA-MB-231 [36] = test: Antitumor activity against human MDA-MB-231 cells implanted in BALB/c mouse assessed as decrease in OCT4 expression administered drug pretreated cells subcutaneously and observed after 2 weeks by immunohistochemistry; assay type: functional, cell-based; details: route sc
MCF7 [37] = test: Antiproliferative activity against human MCF7 cells assessed as decrease in CD44+/CD24- cell population at 0.8 to 51.2 uM incubated for 30 mins by flow cytometry analysis; assay type: functional, cell-based; details: dose 0.8-51.2 µM
MCF7 [38] = test: Inhibition of cell stemness in human MCF7 cells assessed as reduction in OCT3 expression at 0.8 to 51.2 uM by western blot analysis; assay type: functional, cell-based; details: dose 0.8-51.2 µM
[39] = Stability in mouse liver microsomes assessed as half life at 1 uM incubated upto 60 mins in presence of NADPH by LC-MS/MS analysis; assay type: ADME, Microsome
MDA-MB-231 [40] = test: Inhibition of cell invasion of human MDA-MB-231 cells at 0.8 to 51.2 uM incubated for 24 hrs by transwell invasion assay; assay type: functional, cell-based; details: dose 0.8-51.2 µM
MDA-MB-231 [41] = test: Inhibition of cell stemness in human MDA-MB-231 cells assessed as reduction in ALDH1A1 expression at 0.8 to 51.2 uM by western blot analysis; assay type: functional, cell-based; details: dose 0.8-51.2 µM
Cytochrome P450 4Z1 [42] = target: T1, Cytochrome P450 4Z1 (Homo sapiens, UniProt Q86W10); test: Inhibition of CYP4Z1 in human HEK293T cells using Luciferin-BE as substrate at 1 uM incubated for 30 mins in presence of NADPH by luminescence based assay relative to control; assay type: ADME, cell-based; details: HEK-293T, 0.5 h
T1 sequence (Q86W10 whole entry): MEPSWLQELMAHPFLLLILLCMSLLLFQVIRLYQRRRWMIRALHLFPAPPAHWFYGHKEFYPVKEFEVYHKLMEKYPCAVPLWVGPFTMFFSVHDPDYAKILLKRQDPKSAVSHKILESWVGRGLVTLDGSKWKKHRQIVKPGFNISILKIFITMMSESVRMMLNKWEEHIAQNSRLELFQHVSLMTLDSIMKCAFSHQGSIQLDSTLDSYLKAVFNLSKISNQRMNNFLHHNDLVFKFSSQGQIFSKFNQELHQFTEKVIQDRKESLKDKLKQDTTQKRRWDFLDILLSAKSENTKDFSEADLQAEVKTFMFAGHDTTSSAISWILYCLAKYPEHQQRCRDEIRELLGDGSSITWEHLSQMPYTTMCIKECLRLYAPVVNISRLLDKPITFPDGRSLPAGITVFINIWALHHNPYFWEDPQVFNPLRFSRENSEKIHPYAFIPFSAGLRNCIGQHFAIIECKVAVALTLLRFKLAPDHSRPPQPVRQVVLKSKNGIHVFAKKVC

Cytochrome P450 4Z1 [43] = target: T1, Cytochrome P450 4Z1; test: Inhibition of CYP4Z1 in human HEK293T cells using Luciferin-BE as substrate at 10 uM incubated for 30 mins in presence of NADPH by luminescence based assay relative to control; assay type: ADME, cell-based; details: HEK-293T, 0.5 h

What does the source list for CCOC(=O)CCCc1ccc(N/C=N/O)cc1?
Activity (MCF7 [1]): Dose-Dependent Effect; Activity (MCF7 [2]): Active; inhibition (MDA-MB-231 [3]): Dose-Dependent Effect; Activity [4]: Non-Toxic; IC50 (MDA-MB-231 [5]): 483 nM; inhibition (MDA-MB-231 [6]): Dose-Dependent Effect; IC50 (Cytochrome P450 2C9): > 10000 nM; Activity (MCF7 [7]): Dose-Dependent Effect; Activity (MDA-MB-231 [8]): Active; inhibition (MCF7 [9]): Dose-Dependent Effect; Activity (MDA-MB-231 [10]): Active; inhibition (MDA-MB-231 [11]): Dose-Dependent Effect; Activity (MDA-MB-231 [12]): Active; Activity (MDA-MB-231 [13]): Dose-Dependent Effect; inhibition (MCF7 [14]): Active; IC50 (Cytochrome P450 3A4): > 10000 nM; half-life at 40 µM [15]: 24.6 min; inhibition (MDA-MB-231 [16]): Dose-Dependent Effect; Activity (MDA-MB-231 [17]): Dose-Dependent Effect; Activity (MCF7 [18]): Active; Activity (MDA-MB-231 [19]): Active; inhibition (MCF7 [20]): Dose-Dependent Effect; IC50 (Cytochrome P450 2D6): > 10000 nM; Activity (MCF7 [21]): Active; inhibition (MCF7 [22]): Dose-Dependent Effect; inhibition (MCF7 [23]): Dose-Dependent Effect; Activity (MDA-MB-231 [24]): Dose-Dependent Effect; Activity (MCF7 [25]): Active; inhibition (MCF7 [26]): Dose-Dependent Effect; IC50 (MCF7 [27]): 483 nM; Activity (MDA-MB-231 [28]): Active; Activity (MCF7 [29]): Active; Activity (MCF7 [30]): Active; inhibition (MDA-MB-231 [31]): Dose-Dependent Effect; Activity (MDA-MB-231 [32]): inactive; inhibition (MDA-MB-231 [33]): Dose-Dependent Effect; Activity (MCF7 [34]): inactive; inhibition (MCF7 [35]): Dose-Dependent Effect; Activity (MDA-MB-231 [36]): Active; Activity (MCF7 [37]): Dose-Dependent Effect; inhibition (MCF7 [38]): Dose-Dependent Effect; half-life at 1 µM [39]: 12.8 min; inhibition (MDA-MB-231 [40]): Active; inhibition (MDA-MB-231 [41]): Dose-Dependent Effect

With CCCCc1ccc(N/C=N/O)cc1 as the molecule, how does the inhibition at 1 µM (Cytochrome P450 4Z1 [42]) read?
Its inhibition at 1 µM is 54.2%.

And the inhibition at 10 µM (Cytochrome P450 4Z1 [43])?
Its inhibition at 10 µM is 84.3%.
